The record followed here is the NIST ThermoML archive (doi:10.1021/acs.jced.7b00440).

± gives the expanded uncertainty stated by the source.

The conditions of this data set: 100 kPa, Liquid; for viscosity: Capillary tube (Ostwald / Ubbelohde) method; for mass density: Vibrating tube method.

Regarding `CC(C)CO` [2-methyl-1-propanol], the viscosity (commonly the resistance of a fluid to flow) was found to be 4.077 ± 0.079 mPa·s (293.15 K); 3.394 ± 0.066 mPa·s (298.15 K); 2.949 ± 0.057 mPa·s (303.15 K); 2.54 ± 0.049 mPa·s (308.15 K); 2.208 ± 0.043 mPa·s (313.15 K); 1.855 ± 0.036 mPa·s (318.15 K). The viscosity came to 1.621 ± 0.032 mPa·s (323.15 K), 1.425 ± 0.028 mPa·s (328.15 K) and 1.25 ± 0.024 mPa·s (333.15 K). Besides, the mass density (as a rule, the mass of a sample divided by its volume) is, setting by setting: (293.15 K) 801.98 ± 0.27 kg/m3; (298.15 K) 798.13 ± 0.27 kg/m3; (303.15 K) 794.24 ± 0.27 kg/m3; (308.15 K) 790.29 ± 0.27 kg/m3; (313.15 K) 786.3 ± 0.27 kg/m3; (318.15 K) 782.24 ± 0.27 kg/m3. Moreover, the mass density runs as follows: (323.15 K) 778.12 ± 0.27 kg/m3; (328.15 K) 773.92 ± 0.27 kg/m3; (333.15 K) 769.65 ± 0.27 kg/m3.

Regarding `CCCCO` [butan-1-ol], the viscosity is, setting by setting: (293.15 K) 2.97 ± 0.056 mPa·s; (298.15 K) 2.547 ± 0.048 mPa·s; (303.15 K) 2.237 ± 0.042 mPa·s; (308.15 K) 1.98 ± 0.038 mPa·s; (313.15 K) 1.757 ± 0.033 mPa·s; (318.15 K) 1.568 ± 0.03 mPa·s. Also, the viscosity is on record as 1.404 ± 0.027 mPa·s (323.15 K), 1.255 ± 0.024 mPa·s (328.15 K) and 1.132 ± 0.022 mPa·s (333.15 K). In addition, the mass density is 809.01 ± 0.2 kg/m3 (293.15 K); 805.87 ± 0.2 kg/m3 (298.15 K); 802.06 ± 0.21 kg/m3 (303.15 K); 798.18 ± 0.21 kg/m3 (308.15 K); 794.26 ± 0.21 kg/m3 (313.15 K); 790.3 ± 0.21 kg/m3 (318.15 K). In addition, the mass density (323.15 K) was 786.29 ± 0.21 kg/m3, the mass density (328.15 K) amounted to 782.02 ± 0.21 kg/m3 and the mass density (333.15 K) came out at 777.81 ± 0.21 kg/m3.

For the molecule `CCC(C)O` (centres undefined) [butan-2-ol], the viscosity by setting is: (293.15 K) 3.742 ± 0.071 mPa·s; (298.15 K) 3.093 ± 0.059 mPa·s; (303.15 K) 2.579 ± 0.049 mPa·s; (308.15 K) 2.147 ± 0.041 mPa·s; (313.15 K) 1.826 ± 0.035 mPa·s; (318.15 K) 1.555 ± 0.03 mPa·s. Besides, the viscosity was found to be 1.337 ± 0.025 mPa·s (323.15 K), 1.142 ± 0.022 mPa·s (328.15 K) and 0.992 ± 0.019 mPa·s (333.15 K). Also, the mass density is, setting by setting: (293.15 K) 807.17 ± 0.2 kg/m3; (298.15 K) 803.05 ± 0.21 kg/m3; (303.15 K) 798.85 ± 0.21 kg/m3; (308.15 K) 794.55 ± 0.21 kg/m3; (313.15 K) 790.16 ± 0.21 kg/m3; (318.15 K) 785.66 ± 0.21 kg/m3. Also, the mass density runs as follows: (323.15 K) 781.05 ± 0.21 kg/m3; (328.15 K) 776.34 ± 0.21 kg/m3; (333.15 K) 771.51 ± 0.21 kg/m3.
